The values that follow come from patent publication US9340521B2, “Method for dual inhibition of SGLT1 and SGLT2 using diphenylmethane derivatives” (GREEN CROSS CORPORATION, priority 2013, dated 2016).

One experiment has as its target Human SGLT2 (hSGLT2) (Homo sapiens (Human), UniProt P31639). The experiment is described as follows: Inhibitory effects on human SGLT2 activities (14C-AMG uptake, sodium-dependent glucose transport assay). Format: cell-based. As to conditions: hSGLT2-expressing CHO cells, 37° C. for 2 h, single determinations. In outline: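 CHO cells stably expressing hSGLT2 were preincubated 10 min at 37 °C in choline (Na+-free) buffer, then exposed 2 h at 37 °C to compound in Na+ uptake buffer with 8 μM 14C-AMG and 1 mM unlabeled AMG. Radioactivity was scintillation counted; IC50 came from nonlinear regression.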

For another experiment, the target named is Human SGLT1 (hSGLT1) (Homo sapiens (Human), UniProt P13866). Nature of the experiment: Inhibitory effects on human SGLT1 activities (14C-AMG uptake, sodium-dependent glucose transport assay). In kind it is cell-based. The settings on record: 37° C. for 2 h, single determinations.
Sequence of Human SGLT1 (hSGLT1) (P13866 whole entry): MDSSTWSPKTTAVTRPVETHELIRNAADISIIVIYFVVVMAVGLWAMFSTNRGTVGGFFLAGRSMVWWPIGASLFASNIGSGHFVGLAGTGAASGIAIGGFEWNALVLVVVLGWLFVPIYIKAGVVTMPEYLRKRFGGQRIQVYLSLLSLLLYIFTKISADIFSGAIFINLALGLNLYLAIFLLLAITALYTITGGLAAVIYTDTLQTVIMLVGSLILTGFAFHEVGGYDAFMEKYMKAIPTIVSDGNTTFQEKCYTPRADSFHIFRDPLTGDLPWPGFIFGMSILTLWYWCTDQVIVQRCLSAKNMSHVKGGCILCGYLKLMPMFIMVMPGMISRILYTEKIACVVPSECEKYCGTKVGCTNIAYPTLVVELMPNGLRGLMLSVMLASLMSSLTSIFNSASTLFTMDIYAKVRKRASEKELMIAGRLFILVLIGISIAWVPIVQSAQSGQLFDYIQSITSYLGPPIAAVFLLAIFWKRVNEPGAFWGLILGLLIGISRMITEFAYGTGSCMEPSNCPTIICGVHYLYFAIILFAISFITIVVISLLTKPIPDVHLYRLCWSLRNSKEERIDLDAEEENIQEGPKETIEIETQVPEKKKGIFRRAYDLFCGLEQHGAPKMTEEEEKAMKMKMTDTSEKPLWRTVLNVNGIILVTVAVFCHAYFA

Sequence of Human SGLT2 (hSGLT2) (P31639 whole entry): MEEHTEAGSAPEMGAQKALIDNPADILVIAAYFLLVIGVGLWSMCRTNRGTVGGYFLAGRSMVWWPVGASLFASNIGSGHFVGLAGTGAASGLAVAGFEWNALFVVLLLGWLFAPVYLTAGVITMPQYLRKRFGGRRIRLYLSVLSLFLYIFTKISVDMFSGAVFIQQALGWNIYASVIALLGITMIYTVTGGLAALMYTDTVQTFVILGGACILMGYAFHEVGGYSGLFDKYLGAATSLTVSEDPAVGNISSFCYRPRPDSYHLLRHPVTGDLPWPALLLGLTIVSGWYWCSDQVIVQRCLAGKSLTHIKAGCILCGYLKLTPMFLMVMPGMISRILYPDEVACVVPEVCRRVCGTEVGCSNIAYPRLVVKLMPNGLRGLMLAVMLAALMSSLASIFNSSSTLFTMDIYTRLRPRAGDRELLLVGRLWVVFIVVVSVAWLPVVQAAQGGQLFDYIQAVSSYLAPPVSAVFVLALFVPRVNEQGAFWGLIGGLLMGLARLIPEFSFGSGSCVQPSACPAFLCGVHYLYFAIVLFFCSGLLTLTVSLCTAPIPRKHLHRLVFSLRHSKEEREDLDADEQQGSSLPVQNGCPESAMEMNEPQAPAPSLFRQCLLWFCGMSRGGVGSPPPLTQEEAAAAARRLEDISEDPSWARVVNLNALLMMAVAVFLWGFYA

Consider `OC[C@H]1O[C@@H](c2cc(Cc3ccc(C4CC4)cc3)c(Cl)c3c2CCS3)[C@H](O)[C@@H](O)[C@@H]1O` [Compound E060, (2S,3R,4R,5S,6R)-2-(7-Chloro-6-(4-cyclopropylbenzyl)-2,3-dihydrobenzo[b]thiophen-4-yl)-6-(hydroxymethyl)tetrahydro-2H-pyran-3,4,5-triol], for which the IC50 at Human SGLT2 (hSGLT2) was found to be 0.67 nM; against Human SGLT1 (hSGLT1) it was 40.9 nM.

On to `Cc1ccc(Cc2cc([C@@H]3O[C@H](CO)[C@@H](O)[C@H](O)[C@H]3O)c3c(c2C)OCO3)cc1` [Compound E061, (2R,3S,4R,5R,6S)-2-(Hydroxymethyl)-6-(7-methyl-6-(4-methylbenzyl)benzo[d][1,3]dioxol-4-yl)tetrahydro-2H-pyran-3,4,5-triol], for which the IC50 was 1.7 nM on Human SGLT2 (hSGLT2) and 27 nM at Human SGLT1 (hSGLT1).

Regarding `OC[C@H]1O[C@@H](c2cc(Cc3ccc(C4CCC4)cc3)c(Cl)c3c2OCCC3)[C@H](O)[C@@H](O)[C@@H]1O` [Compound E062, (2S,3R,4R,5S,6R)-2-(5-Chloro-6-(4-cyclobutylbenzyl)chroman-8-yl)-6-(hydroxymethyl)tetrahydro-2H-pyran-3,4,5-triol], the figures for the IC50 at Human SGLT2 (hSGLT2) and on Human SGLT1 (hSGLT1) were 1.1 nM and 163 nM, respectively.

With `COc1ccc(Cc2cc([C@@H]3O[C@H](CO)[C@@H](O)[C@H](O)[C@H]3O)c3c(c2C)OCO3)cc1` [Compound E063, (2R,3S,4R,5R,6S)-2-(Hydroxymethyl)-6-(6-(4-methoxybenzyl)-7-methylbenzo[d][1,3]dioxol-4-yl)tetrahydro-2H-pyran-3,4,5-triol], the results for the IC50 against Human SGLT2 (hSGLT2) and on Human SGLT1 (hSGLT1) were 1.6 nM and 66.2 nM, respectively.

Consider `CCc1ccc(Cc2cc([C@@H]3O[C@H](CO)[C@@H](O)[C@H](O)[C@H]3O)c3c(c2C)OCO3)cc1` [Compound E064, (2S,3R,4R,5S,6R)-2-(6-(4-Ethylbenzyl)-7-methylbenzo[d][1,3]dioxol-4-yl)-6-(hydroxymethyl)tetrahydro-2H-pyran-3,4,5-triol], for which the figures for the IC50 at Human SGLT2 (hSGLT2) and against Human SGLT1 (hSGLT1) were 1.1 nM and 38.3 nM, respectively.

For the compound `CCOc1ccc(Cc2cc([C@@H]3O[C@H](CO)[C@@H](O)[C@H](O)[C@H]3O)c3c(c2C)OCO3)cc1` [Compound E065, (2S,3R,4R,5S,6R)-2-(6-(4-Ethoxybenzyl)-7-methylbenzo[d][1,3]dioxol-4-yl)-6-(hydroxymethyl)tetrahydro-2H-pyran-3,4,5-triol], the half-maximal inhibitory concentration (IC50) at Human SGLT2 (hSGLT2) was determined as 1.6 nM; on Human SGLT1 (hSGLT1), 155 nM.
